Measurements published in PubChem BioAssay (NCI).
“And” between values parts separate entries of the source, which are not always exact repeats. Equal values may be shown once.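 1) Cells in 96-well plates. 2) Compound, 48 h, 5 concentrations. 3) Linear interpolation between surrounding doses. 4) Unreached endpoint = highest concentration. Abbreviation: GI50, concentration required for 50% inhibition of growth. TGI: concentration producing complete growth inhibition.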

Tests used:
Assay in all cases: NCI tumour cell line growth inhibition, 48 h
[1] = tested on: MDA-N
[2] = tested on: M19-MEL melanoma
[3] = tested on: DMS 114 small cell lung
[4] = tested on: LXFL 529 NSCLC
[5] = tested on: KM20L2 colon
[6] = tested on: HOP-18 NSCLC
[7] = tested on: XF 498 CNS
[8] = tested on: SNB-78 CNS
[9] = tested on: RXF-631 renal
[10] = tested on: P388/ADR leukemia
[11] = tested on: P388 leukemia

SMILES | TGI [1] [µM] | TGI [2] [µM] | TGI [3] | TGI [4] [µM] | TGI [5] [µM] | TGI [6] [µM] | TGI [7] [µM] | TGI [8] [µM] | TGI [9] [µM] | other results
Nc1ncnc2c1ncn2CC(O)C(=O)O (configuration not stated) | > 100 | > 100 | > 100 µM | > 100 | > 100 | > 100 | – | – | – | –
O=C1C=C[C@@]23C[C@@H](Nc4c(O)c5c6c(c42)=NCCC=6C=N5)SC3=C1 | 3.1 | 3.24 | – | 3.24 | 10.7 | 28.1 | 4.95 | 12.3 | – | GI50 [2]: 1.71 µM; GI50 [7]: 2.34 µM; GI50 [6]: 14.8 µM; GI50 [8]: 3.24 µM
O=c1c2cccc3cccc(c4oc5c6cccc7cccc(c(=O)c5c14)c76)c32 | – | 16.9 | 18.5 µM | 15.8 | 26.2 | 24.8 | – | 21.2 | 19.3 | –
O=C1Nc2ccccc2C1Cc1ccc([N+](=O)[O-])cc1 (configuration not stated) | > 100 | – | – | – | – | – | – | – | – | –
CC1=C(C(=O)Nc2cccc(Cl)c2)C(c2ccc([N+](=O)[O-])cc2)C(C(=O)Nc2cccc(Cl)c2)=C(C)N1 | – | – | > 100 µM | > 100 | 54.4 | 56.7 | – | > 100 | 57.6 | –
CCCCCCCCC(=O)N(C)C1C2CN3CCC(O2)C13 (configuration not stated) | – | > 100 | > 100 µM | > 100 | > 100 | > 100 | – | > 100 | – | –
Cc1ccc2c(c1C)-c1c(ccc(C)c1C)C(=O)C2=O | 0.348 | – | – | – | – | – | – | – | – | –
C/C([O-])=C1\Cc2ccccc2C1=O.C/C([O-])=C1\Cc2ccccc2C1=O.CC[O-].CC[O-].[Ti+4] | 42.3 | 34.8 | 37.4 µM | 35.5 | > 100 | 80 | – | > 100 | 29.1 | GI50 [1]: 17.1 µM; GI50 [2]: 16.8 µM; GI50 [3]: 18.7 µM; GI50 [4]: 12.3 µM; GI50 [9]: 6.96 µM; GI50 [5]: 29.2 µM; GI50 [6]: 32.5 µM; GI50 [8]: 24 µM
O=C1/C(=C/c2ccc3c(c2)OCO3)CCC1CN1CCOCC1 (configuration not stated) | 4.07 | 10 | 15.6 µM | 7.68 | 36.9 | 31.4 | – | 41.8 | 44.7 | –
O=c1c2cc(Br)ccc2nc(-c2ccccc2Cl)n1NCC1(O)OCC(O)C(O)C1O (configuration not stated) | – | > 100 | > 100 µM | > 100 | > 100 | – | – | > 100 | – | –
Fc1cccc2cc3ccc4cccc5ccc(c12)c3c45 | – | > 100 | > 100 µM | > 100 | > 100 | 12.8 | > 100 | – | > 100 | –
O=c1c(Sc2c(O)c3ccccc3c3ccccc3c2=O)c(O)c2ccccc2c2ccccc12 | – | > 100 | 92.3 µM | > 100 | > 100 | > 100 | – | – | > 100 | –
COC(=O)C1C2C=CC(C2)C1(C(=O)OC)S(=O)CC12CCC(CC1O)C2(C)C (configuration not stated) | – | > 100 | > 100 µM | > 100 | > 100 | > 100 | > 100 | > 100 | > 100 | –
CC(=O)Nc1ccc(/C=N\N2C(=O)c3ccccc3C2=O)cc1 | – | > 100 | > 100 µM | > 100 | > 100 | > 100 | > 100 | > 100 | – | –
NC1=C(Br)C(=O)c2ncccc2C1=O | – | 0.298 | 0.313 µM | 0.8 | 3.54 | – | 2.16 | 2.48 | 3.73 | –
c1cc(CCN2CCCCC2)ccn1 | > 100 | – | – | – | – | – | – | – | – | –
CN(CC(=O)O)c1ccc(/C=C/c2ccnc3ccccc23)cc1 | 53.9 | – | – | – | – | – | – | – | – | –
CC(=O)Nc1ccccc1C=C1c2ccccc2-c2ccccc21 | > 100 | – | – | – | – | – | – | – | – | –
NNC(=O)CCC(=O)Nc1cc(Cl)c(Cl)cc1Cl | – | > 100 | > 100 µM | > 100 | > 100 | – | > 100 | > 100 | > 100 | –

SMILES | TGI [1] [µM] | TGI [2] [µM] | TGI [3] | TGI [4] [µM] | TGI [5] [µM] | TGI [6] [µM] | TGI [7] [µM] | TGI [8] [µM] | TGI [9] [µM] | other results
C=C1C(=O)OC2C1CC[C@H](C)C13OC(=O)CC1[C@@]23C (some centres not stated) | – | > 100 | > 100 µM | > 100 | – | – | – | > 100 | – | –
CCc1ccccc1N1CCN(C(=O)c2cc(OC)c(OC)c(OC)c2)CC1 | – | > 100 | 0.692 µM | – | 0.307 | > 91.9 | 17.9 | > 100 | – | TGI [10]: 4.22 µM; TGI [11]: 0.367 µM
CCOC(=O)C1=C(NNC(=O)Cc2ccccc2)CSC1=Nc1ccccc1 | – | > 100 | – | > 100 | > 100 | > 100 | > 100 | > 100 | > 100 | –
CCC(CC)n1cc(C(=O)NC(=O)NCCCCCOC(=O)CCCCCCCCCCC(=O)OCCCCCNC(=O)NC(=O)c2cn(C(CC)CC)c(=O)[nH]c2=O)c(=O)[nH]c1=O | – | > 100 | > 100 µM | > 100 | > 100 | > 100 | > 100 | > 100 | > 100 | –
Cc1cccc(NC(=O)c2cc3cc(N=Nc4ccccc4Cl)ccc3oc2=O)c1 | – | > 100 | 66.8 µM | > 100 | > 100 | > 100 | 64.5 | > 100 | > 100 | –
COc1cc(Cn2c(=S)ss/c2=N\C(=S)N(C)C)cc(OC)c1OC | 3.01 | > 66.2 | 12.8 µM | > 100 | > 100 | > 100 | – | > 100 | > 100 | –
N#C/C(=C1\NN=C(N)C(c2ccc(Cl)cc2)=C1O)c1ccc(Cl)cc1 | – | > 100 | > 100 µM | > 100 | > 100 | > 100 | > 100 | > 100 | – | –
C=C1CC2(C[C@@H](c3ccccc3)O[C@@H](c3ccccc3)C2)OC1=O (some centres not stated) | 5.76 | – | – | – | – | – | – | – | – | –
O=c1[nH]nc2ccccc2c1Cl | – | 20.1 | 18.9 µM | – | 29.5 | 29.1 | 28.1 | 41.1 | 28.4 | –
COC(C(=O)C(O)C(C)O)C1Cc2cc3cc(OC4CC(OC(C)=O)C(OC5CC(O)C(OC)C(C)O5)C(C)O4)cc(O)c3c(O)c2C(=O)C1OC1CC(OC2CC(OC3CC(C)(O)C(OC(=O)C(C)C)C(C)O3)C(O)C(C)O2)C(O)C(C)O1 (configuration not stated) | 0.252 | – | 0.084 µM and 0.017 µM and 0.0165 µM | 0.124 | – | – | – | – | – | TGI [10]: 75 µM and > 100 µM; GI50 [7]: 0.00637 µM and 0.00134 µM; GI50 [4]: 0.0174 µM; TGI [11]: 0.237 µM and 0.0293 µM
Nc1ccn(CCO)c(=O)n1 | – | > 100 | > 100 µM | > 100 | > 100 | > 100 | – | > 100 | – | –
CC1CC(c2cccc3c2OCO3)=Nc2ccccc2S1 (configuration not stated) | – | > 100 | > 100 µM | > 100 | > 100 | – | > 100 | > 100 | – | –
O=C1OC(CC(=O)c2ccc(Cl)cc2Cl)C(Cl)=C1Cl (configuration not stated) | – | 48.8 | > 53.1 µM | 32.1 | 42 | > 100 | 45.6 | > 71.3 | > 75.5 | –
CC1CC2C(=O)N(c3ccccc3)C(=O)C2c2c1c1ccccc1n2Cc1ccccc1 (configuration not stated) | – | > 100 | > 100 µM | > 100 | – | – | – | – | – | –
COC1(O)C(=O)c2ccccc2OC1(OC)c1ccccc1 (configuration not stated) | > 100 | – | – | – | – | – | – | – | – | –
Cc1nn(-c2ccccc2)c2c1CC(=O)Nc1ccccc1-2 | 0.47 | – | – | – | – | – | – | – | – | –
OCC(O)C(OC1OC(CO)C(O)C(O)C1O)c1nn(-c2ccccc2)c2nc3cc(Cl)c(Cl)cc3cc12 (configuration not stated) | – | > 100 | – | > 100 | > 100 | – | > 100 | > 100 | > 100 | –
C=C(C)C(=O)OC1CC2=CC(CC3(C)OC3C3OC(=O)C(=C)C13)OC2=O (configuration not stated) | – | 19 | 30.3 µM | 5.94 | 30.5 | 34.1 | – | 33.3 | 35.8 | –
O=C1/C(=C/c2ccccc2F)CNC/C1=C\c1ccccc1F | 1.71 | – | – | – | – | – | – | – | – | GI50 [1]: 0.485 µM
